Experiments:
Format in all cases: cell-based
[1] = system: Trichoderma virens (ATCC 9645); test: MIC on Potato Dextrose Agar; details: PDA agar, 25-30° C.
Procedure: (§1) The efficacy of antimicrobial compositions in accordance with aspects of the invention against the following organisms was determined as follows. The following organisms were incubated in the presence of varying concentrations of 9-decenoic acid (9-DA) on an agar surface: Aspergillus parasiticus (ATCC 56857), Trichoderma virens (ATCC 9645), Aspergillus flavus (ATCC 96045), Cladosporium cladosporiodes (ATCC 16022), Aspergillus flavus (ATCC 5917), Aspergillus oryzae (ATCC 10124), Aspergillus parasiticus (ATCC 13539), Ulocladium atrum (ATCC 52426), Candida albicans (ATCC 11651), Aspergillus niger (ATCC 11414).
(§2) Fungal spores were hydrated in 0.1% Tween 80 and then plated onto Potato Dextrose Agar (PDA) (Difco # 213400; Becton, Dickinson and Company, Sparks, Md.) and incubated at 25-30° C. for six (6) days. The spores were washed from the surface with 5 ml of 0.1% Tween 80 and enumerated.
(§3) PDA plates were prepared according to the manufacturer's instructions through sterilization. The agar was tempered to approximately 50° C. and filter sterilized. Antimicrobial compositions containing 9-DA were added by percent weight to molten autoclaved PDA media, with consideration of specific gravity (0.915 g/mL for 9-DA) and purity (98% for 9-DA). The agar was thoroughly mixed and poured into sterile petri plates and allowed to solidify.
(§4) The agar plates were inoculated with the spore solution to achieve 10^2 spores/plate. The plates were incubated at 25-30° C. in Ziploc bags with a wet paper towel to keep the moisture level high. The plates were examined for growth at 1, 2, 3, 4, 8, 11, 15, 17, 23, 29 and 31 days. The percent coverage of growth on the agar surface was recorded at each sample point.

[2] = system: Cladosporium cladosporiodes (ATCC 16022); test: MIC on Potato Dextrose Agar; details: PDA agar, 25-30° C.
Procedure: as §1, §2, §3, §4

[3] = system: Candida albicans (ATCC 11651); test: MIC on Potato Dextrose Agar; details: PDA agar, 25-30° C.
Procedure: as §1, §2, §3, §4

[4] = system: Aspergillus oryzae (ATCC 10124); test: MIC on Potato Dextrose Agar; details: PDA agar, 25-30° C.
Procedure: as §1, §2, §3, §4

[5] = system: Aspergillus flavus (ATCC 5917); test: MIC on Potato Dextrose Agar; details: PDA agar, 25-30° C.
Procedure: as §1, §2, §3, §4

[6] = system: Aspergillus parasiticus (ATCC 56857); test: MIC on Potato Dextrose Agar; details: PDA agar, 25-30° C.
Procedure: as §1, §2, §3, §4

[7] = system: Aspergillus flavus (ATCC 96045); test: MIC on Potato Dextrose Agar; details: PDA agar, 25-30° C.
Procedure: as §1, §2, §3, §4

[8] = system: Aspergillus niger (ATCC 11414); test: MIC on Potato Dextrose Agar; details: PDA agar, 25-30° C.
Procedure: as §1, §2, §3, §4

[9] = system: Salmonella enteritidis (ATCC 13076); test: Preservative effectiveness on food pathogens (US Pharmacopoeia 23)
Procedure: (§5) The effectiveness of 9-decenoic acid on food pathogens was determined using the protocol on preservative effectiveness found in the US Pharmacopoeia 23, 1995.
(§6) Stock cultures of the Listeria monocytogenes (ATCC 1911-1), Salmonella enteritidis (ATCC 13076) and Campylobacter jejuni (ATCC 29428) were transferred for at least three consecutives days on Trypticase Soy Agar (TSA) and incubated at 30-35° C. for 18-24 hours. On the day of the test, the cells were washed from the agar surface with sterile saline containing 0.05% w/v Polysorbate 80 (SS+) and the suspension was centrifuged at 2000 rpm for 15 minutes and resuspended in SS+. The suspension was diluted to approximately 10^8 CFU/ml.
(§7) The 9-decenoic acid was diluted in the same manner as previously described to achieve concentrations of 0.25%, 0.125%, 0.0625%, 0.03%, 0.015%, 0.0078% and 0.0039%. The samples were dispensed in 20 ml aliquots in sterile test tubes. For each concentration tested, a 0.1 ml aliquot of each inoculum was added to a final concentration of 10^5 to 10^6 CFU/ml. The tubes were incubated at room temperature and sampled on days 0, 1, 2, 4, 7, 14, 21 and 28.
(§8) At each sample point, 1.0 ml aliquots were withdrawn, serially diluted and plated in triplicate on TSA. The plates were incubated at 30-35° C. for 2-4 days. The colonies were counted and the average CFU/ml was calculated. Controls for purity, viability and sterility were performed as described previously.
(§9) According to the US Pharmacopoeia, a test compound is an effective preservative if the concentrations of viable bacteria remain at or below the initial concentrations during the first fourteen days and after 28 days.
(§10) Additionally, test organisms in Tables 9-11 were exposed to the 9-decenoic acid for several minutes before analysis at Day 0. As shown in the Tables 9-11, significant biocidal activity was observed even within this short time period for the test organisms, illustrating the effectiveness of 9-decenoic acid as a biocidal agent.

[10] = system: Listeria monocytogenes (ATCC 19111); test: as above
Procedure: as §5, §6, §7, §8, §9, §10

[11] = 0.0078% 9-decenoic acid, exposure day 0
[12] = 0.0078% 9-decenoic acid, exposure day 1
[13] = 0.0078% 9-decenoic acid, exposure day 2
[14] = 0.0078% 9-decenoic acid, exposure day 4
[15] = 0.0078% 9-decenoic acid, exposure day 7
[16] = 0.0078% 9-decenoic acid, exposure day 14
[17] = 0.0078% 9-decenoic acid, exposure day 21
[18] = 0.0078% 9-decenoic acid, exposure day 28
[19] = 0.015% 9-decenoic acid, exposure day 0
[20] = 0.015% 9-decenoic acid, exposure day 1
[21] = 0.015% 9-decenoic acid, exposure day 2
[22] = 0.015% 9-decenoic acid, exposure day 4
[23] = 0.015% 9-decenoic acid, exposure day 7
[24] = 0.015% 9-decenoic acid, exposure day 14
[25] = 0.015% 9-decenoic acid, exposure day 21
[26] = 0.015% 9-decenoic acid, exposure day 28
[27] = 0.03% 9-decenoic acid, exposure day 0
[28] = 0.03% 9-decenoic acid, exposure day 1
[29] = 0.03% 9-decenoic acid, exposure day 2
[30] = 0.03% 9-decenoic acid, exposure day 4
[31] = 0.03% 9-decenoic acid, exposure day 7
[32] = 0.03% 9-decenoic acid, exposure day 14
[33] = 0.03% 9-decenoic acid, exposure day 21
[34] = 0.03% 9-decenoic acid, exposure day 28
[35] = US Pharmacopoeia definition, 28 days

C=CCCCCCCCC(=O)O [9-decenoic acid]
≤ 0.0078%: Concentration at which effective preservative [9, 35] | Concentration at which effective preservative [10, 35]
5.1 log: Log reduction [9, 15] | Log reduction [9, 16] | Log reduction [9, 17] | Log reduction [9, 18] | Log reduction [9, 19] | Log reduction [9, 20] | Log reduction [9, 21] | Log reduction [9, 22] | Log reduction [9, 23] | Log reduction [9, 24] | Log reduction [9, 25] | Log reduction [9, 26] | Log reduction [9, 27] | Log reduction [9, 28] | Log reduction [9, 29] | Log reduction [9, 30] | Log reduction [9, 31] | Log reduction [9, 32] | Log reduction [9, 33] | Log reduction [9, 34] | Log reduction [10, 12] | Log reduction [10, 13] | Log reduction [10, 14] | Log reduction [10, 15] | Log reduction [10, 16] | Log reduction [10, 17] | Log reduction [10, 18] | Log reduction [10, 19] | Log reduction [10, 20] | Log reduction [10, 21] | Log reduction [10, 22] | Log reduction [10, 23] | Log reduction [10, 24] | Log reduction [10, 25] | Log reduction [10, 26] | Log reduction [10, 27] | Log reduction [10, 28] | Log reduction [10, 29] | Log reduction [10, 30] | Log reduction [10, 31] | Log reduction [10, 32] | Log reduction [10, 33] | Log reduction [10, 34]
4.0 log: Log reduction [9, 14]
0.05%: MIC [1] | MIC [4] | MIC [5] | MIC [6] | MIC [7] | MIC [8]
3.2 log: Log reduction [9, 12]
7 days: Exposure time at which bactericidal ([9]; at 0.0078%)
0.53 log: Log reduction [9, 11]
1 days: Exposure time at which bactericidal ([10]; at 0.0078%)
4.1 log: Log reduction [9, 13]
1.0 log: Log reduction [10, 11]
0.025%: MIC [2] | MIC [3]
0 days: Exposure time at which bactericidal ([9]; at 0.015%) | Exposure time at which bactericidal ([10]; at 150 ppm)

Source: US20080033026A1, “Antimicrobial compositions, methods and systems” (priority 2006, published 2008)
